Reference: patent publication US11707442B2, “Antibacterial and antifungal compounds” (The General Hospital Corporation, priority 2015, dated 2023)
≈ marks a conversion by molar mass, not a printed value. Like-named read-outs stand apart in the source and are kept apart here.

Tests used:
K. pneumoniae = assay: Disc clearing assay; format: cell-based, Klebsiella pneumoniae; settings: result in words
Protocol: (§1) Disc clearing assay: The disc diffusion test was performed on Mueller Hinton (MH) agar plates for bacterial cultures and yeast extract, peptone, dextrose (YPD) for fungal cultures. The assay was repeated 3 times. Discs were soaked in 10 μl of either DMSO or 10 mg/ml compound stock solution and air-dried. Three hundred microliters of an overnight culture of bacteria or fungi were spread on plates. After completely drying the agar plate in a laminar flow hood, DMSO or compound impregnated discs were overlaid on the plate and incubated at 35° C. for 18 hrs.

human erythrocytes = assay: Human blood hemolysis; format: cell-based; settings: increasing concentrations; result in words
Protocol: Human blood hemolysis. Hemolytic activity of retinoids on human erythrocytes was evaluated using a previously described method with modifications (Rajamuthiah, R. et al. A defensin from the model beetle Tribolium castaneum acts synergistically with telavancin and daptomycin against multidrug resistant Staphylococcus aureus. PLoS ONE 10, e0128576 (2015)). 10% human erythrocytes were purchased from Rockland Immunochemicals (Limerick, Pa., USA). The erythrocytes were diluted to 4% with PBS, and 100 μl was added to 100 μl of two-fold serial dilutions of compounds in PBS, 0.2% DMSO (negative control), or 2% Triton-X 100 (positive control) in a 96-well plate. The 96-well plate was incubated at 37° C. for 1 h and then centrifuged at 500×g for 5 min. 100 μl of the supernatant was transferred to a fresh 96-well plate, and absorbance of supernatants was measured at 540 nm. Percent hemolysis was calculated using the following equation: (A540 nm of compound treated sample—A540nm of 0.1% DMSO treated sample)/(A540 nm of 1% Triton X-100 treated sample—A540nm of 0.1% DMSO treated sample)×100. HC50 (concentration of a compound causing 50% hemolysis) was determined using SigmaPlot 10.0 (Systat Software Inc., San Jose, Calif., USA).
In a 96 well plate, 50 μl of 2% human erythrocytes suspended in PBS was added to 50 μl of compounds serially diluted in PBS and incubated at 37° C. for 1 hour. The plate was then centrifuged at 500 G for 5 minutes and 50 μl of the supernatant from each well of the assay plate was transferred to a fresh 96 well plate. Hemolysis was confirmed by both visual observation and measuring absorbance at 540 nm. Treatment was conducted in triplicate.
2% human erythrocytes were treated with two-fold serially diluted concentration of the retinoids for 1 h at 37° C. A sample treated with 1% Triton-X 100 was used as the control for 100% hemolysis. Results are shown as means±s.d.; n=3.

S. aureus = assay: Minimal inhibitory concentration (MIC), broth microdilution; format: cell-based, Staphylococcus aureus
Method in brief: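 MIC values against methicillin-resistant Staphylococcus aureus were determined by standard broth microdilution following Clinical and Laboratory Standards Institute guidance (CLSI document M07-A8). Each well held 100 μl of test compound plus bacterial cells in MH broth, with the starting OD600 set to 0.03. Plates were incubated 18 hrs at 35° C. and absorbance was then read at 595 nm.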

A. baumannii [1] = assay: Disc clearing assay; format: cell-based, Acinetobacter baumannii; settings: result in words
Protocol: as §1

P aeruginosa = assay: Disc clearing assay; format: cell-based, Pseudomonas aeruginosa; settings: result in words
Protocol: as §1

HepG2 cells = assay: Toxicity assay with HepG2 liver cells (WST-1); format: cell-based; settings: 24 hours; result in words
Protocol: HepG2 cells were cultured in Dulbecco's modified Eagle medium (DMEM) containing 10% fetal bovine serum, 25 mM D-glucose, 2 mM L-glutamine, 1 mM sodium pyruvate and 1% penicillin/streptomycin and maintained at 37° C. in 5% CO2. For the toxicity test, HepG2 were cultured at 70-80% confluence in 96-well plates in a volume of 100 μl/well culture medium. Serially diluted chemical compounds were incubated with the cells at 37° C. in 5% CO2 for 24 hours. Ten microliters of 4-(3-(4-iodophenyl)-2-(4-nitrophenyl)-2H-5-tetrazolio)-1,3-benzene disulfonate (WST-1) solution were added per well for the last 4 hours of the 24 hours period. WST-1 reduction was detected using absorbance at 490 nm by a Vmax microplate reader. The percent […] relative to that of the no-treatment control was calculated. The assay was done in triplicate.

E. faecium [2] = assay: Disc clearing assay; format: cell-based, Enterococcus faecium; settings: result in words
Protocol: as §1

E. spp. = assay: Disc clearing assay; format: cell-based, Enterobacter sp.; settings: result in words
Protocol: as §1

P. aeruginosa = assay: MIC, broth microdilution; format: cell-based, Pseudomonas aeruginosa; settings: P. aeruginosa PA14
Source text: (§2) Bacterial strains and growth conditions and persister isolation: methicillin-resistant S. aureus (MRSA) strain MW2 BAA-1707, vancomycin-resistant S. aureus strain VRS 1, 11 clinical S. aureus isolates, 8 clinical Enterococcus faecium isolates, Klebsiella pneumoniae WGLW2 (BEI Resources, Manassas, Va., USA), Acinetobacter baumannii ATCC 17978, Pseudomonas aeruginosa PA14, and Enterobacter aerogenes ATCC 13048 were used to test antimicrobial activity (See Table 1a). S. aureus and E. faecium strains were grown in tryptic soy broth (TSB) (BD, Franklin Lakes, N.J., USA) or brain-heart infusion (BHI) broth (BD, Franklin Lakes, N.J., USA), respectively at 37° C. at 225 rpm. K. pneumoniae, A. baumannii, P. aeruginosa, and E. aerogenes were grown in Luria Bertani (LB) broth (BD, Franklin Lakes, N.J., USA).
(§3) To test the bacterial MICs for compounds described herein, the total volume in each well was 100 μl of test compounds and bacterial cells in MH broth. […] The bacterial concentration was adjusted to an initial OD600 of 0.03. After incubation at 35° C. for 18 hrs, the absorbance was measured at 595 nm in accordance with CLSI document M07-A8. The MICs of antibiotics were determined by the standard microdilution method recommended by the Clinical and Laboratory Standards Institute.

[3] = system: S. aureus persister cells (stationary phase); assay: Persister killing assay; format: cell-based, Staphylococcus aureus; settings: 4 μg/ml CD437 or CD1530 or 10 μg/ml gentamicin alone
Protocol: Persister killing assay. […] Persister cells of these 13 S. aureus strains were developed by growing cultures overnight to stationary phase at 37° C. at 225 rpm. The overnight cultures were washed three times with PBS and diluted to ˜10^7 CFU/ml with the same buffer, which is the same concentration as used in the killing kinetics assay described herein. 1 ml of the persister suspension containing appropriate concentrations of antibiotics was added to the wells of a 2 ml deep well assay block (Corning Costar 3960) and incubated at 37° C., with shaking at 225 rpm. At specific times, 50 μl samples were removed, serially diluted and spot-plated on TSA plates to enumerate the number of live cells. These experiments were conducted in triplicate.

A. baumannii [4] = assay: MIC, broth microdilution; format: cell-based, Acinetobacter baumannii; settings: A. baumannii ATCC 17978
Source text: as §2, §3

[5] = system: S. aureus MW2 (MRSA) in neutropenic mouse thigh; settings: previous study (Conlon 2013); cited from earlier work
E. aerogenes ATCC 13048 = assay: MIC, broth microdilution; format: cell-based, Enterobacter aerogenes; settings: E. aerogenes ATCC 13048
Source text: as §2, §3

E. faecium [6] = assay: MIC, broth microdilution; format: cell-based, Enterococcus faecium
Method in brief: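 MIC by CLSI broth microdilution (M07-A8) in MH broth; E. aerogenes, K. pneumoniae and A. baumannii pre-grown in LB, E. faecium in BHI, at 37° C. Inoculum at initial OD600 0.03, incubated 18 hrs at 35° C., growth read as absorbance at 595 nm.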

K. pneumonia WGLW2 = assay: MIC, broth microdilution; format: cell-based, Klebsiella pneumoniae; settings: K. pneumonia WGLW2
Source text: as §2, §3

Molecule: CC1COc2c(N3CCN(C)CC3)c(F)cc3c(=O)c(C(=O)OCc4ccccn4)cn1c23 (stereo not drawn) [Z3060, pyridin-2-ylmethyl 9-fluoro-3-methyl-10-(4-methylpiperazin-1-yl)-7-oxo-3,7-dihydro-2H-[1,4]oxazino[2,3,4-ij]quinoline-6-carboxylate]
- zone of inhibition, K. pneumoniae (K. pneumoniae): zone of inhibition
- toxicity (hemolysis) to erythrocytes (human erythrocytes): did not exhibit lysis
- MIC (S. aureus; Staphylococcus aureus, S. aureus (reference strain), read-out: MIC): 2 µg/mL (≈ 4.42 µM)
- MIC (S. aureus; Staphylococcus aureus, clinical isolates of S. aureus (Z3060), read-out: MIC): 1 to 2 µg/mL (≈ 2.21 to 4.42 µM)
- MIC change (S. aureus; clinical isolates known to be drug resistant, result in words): increased
- zone of inhibition, A. baumannii (A. baumannii [1]): zone of inhibition
- zone of inhibition, P aeruginosa (P aeruginosa): zone of inhibition
- HepG2 cell viability (HepG2 cells): cell viability are maintained
- zone of inhibition, E. faecium (E. faecium [2]): zone of inhibition
- zone of inhibition, E. spp. (E. spp.): zone of inhibition

Molecule: gentamicin
- Minimum inhibitory concentration (P. aeruginosa): 2 µg/mL
- viability of MW2 persister cells, single agent [3]: did not significantly affect
- Minimum inhibitory concentration (S. aureus; S. aureus BF1): 1 µg/mL
- Minimum inhibitory concentration (S. aureus; S. aureus BF2): 1 µg/mL
- Minimum inhibitory concentration (S. aureus; S. aureus BF3): 1 µg/mL
- Minimum inhibitory concentration (S. aureus; S. aureus BF4): 1 µg/mL
- Minimum inhibitory concentration (S. aureus; S. aureus BF5): 1 µg/mL
- Minimum inhibitory concentration (S. aureus; S. aureus BF6): 1 µg/mL
- Minimum inhibitory concentration (S. aureus; S. aureus BF7): 1 µg/mL
- Minimum inhibitory concentration (S. aureus; S. aureus BF8): 1 µg/mL
- Minimum inhibitory concentration (S. aureus; S. aureus BF9): 1 µg/mL
- Minimum inhibitory concentration (S. aureus; S. aureus BF10): 1 µg/mL
- Minimum inhibitory concentration (S. aureus; S. aureus BF11): 1 µg/mL
- Minimum inhibitory concentration (S. aureus; S. aureus MW2): 1 µg/mL
- MIC (S. aureus; S. aureus MW2 mutant SP1-8 (graS)): 0.25 µg/mL
- MIC (S. aureus; S. aureus MW2 mutant SP1-48 (graS, manA)): 0.25 µg/mL
- MIC (S. aureus; S. aureus MW2 mutant SP1-74 (graS, manA, MW2474)): 0.25 µg/mL
- MIC (S. aureus; S. aureus MW2 mutant SP1-100 (graS, manA, MW2474)): 0.25 µg/mL
- MIC (S. aureus; S. aureus MW2 mutant SP2-13 (yjbH)): 1 µg/mL
- MIC (S. aureus; S. aureus MW2 mutant SP2-52 (yjbH, dltB)): 0.25 µg/mL
- MIC (S. aureus; S. aureus MW2 mutant SP2-59 (yjbH, dltB, manA)): 0.25 µg/mL
- MIC (S. aureus; S. aureus MW2 mutant SP2-65 (yjbH, dltB, manA, MW1685)): 0.25 µg/mL
- MIC (S. aureus; S. aureus MW2 mutant SP2-100 (yjbH dltB, manA, MW1685)): 0.25 µg/mL
- MIC (S. aureus; S. aureus MW2 serial passage culture SP1-1 (no mutated gene)): 1 µg/mL
- MIC (S. aureus; S. aureus MW2 serial passage culture SP2-1 (no mutated gene)): 1 µg/mL
- Minimum inhibitory concentration (S. aureus; S. aureus VRS1): >64 µg/mL
- Minimum inhibitory concentration (A. baumannii [4]): 1 µg/mL
- reduction of MRSA CFUs in the deep-seated mouse thigh infection model [5]: unable to significantly reduce
- Minimum inhibitory concentration (E. aerogenes ATCC 13048): 2 µg/mL
- Minimum inhibitory concentration (E. faecium [6]; E. faecium C68): >64 µg/mL
- Minimum inhibitory concentration (E. faecium [6]; E. faecium D14): 32 µg/mL
- Minimum inhibitory concentration (E. faecium [6]; E. faecium D24): >64 µg/mL
- Minimum inhibitory concentration (E. faecium [6]; E. faecium D25): 32 µg/mL
- Minimum inhibitory concentration (E. faecium [6]; E. faecium D29): 64 µg/mL
- Minimum inhibitory concentration (E. faecium [6]; E. faecium E007): >64 µg/mL
- Minimum inhibitory concentration (E. faecium [6]; E. faecium WB213): 32 µg/mL
- Minimum inhibitory concentration (E. faecium [6]; E. faecium WC176): 64 µg/mL
- Minimum inhibitory concentration (K. pneumonia WGLW2): 1 µg/mL
